From article PMC3083228 (The Journal of Biological Chemistry, 2011) come the findings set out here.

Structures are written as SMILES.

This experiment deals with T1, SpIH (Strongylocentrotus purpuratus, UniProt O76977).
T1 sequence (O76977 1-767): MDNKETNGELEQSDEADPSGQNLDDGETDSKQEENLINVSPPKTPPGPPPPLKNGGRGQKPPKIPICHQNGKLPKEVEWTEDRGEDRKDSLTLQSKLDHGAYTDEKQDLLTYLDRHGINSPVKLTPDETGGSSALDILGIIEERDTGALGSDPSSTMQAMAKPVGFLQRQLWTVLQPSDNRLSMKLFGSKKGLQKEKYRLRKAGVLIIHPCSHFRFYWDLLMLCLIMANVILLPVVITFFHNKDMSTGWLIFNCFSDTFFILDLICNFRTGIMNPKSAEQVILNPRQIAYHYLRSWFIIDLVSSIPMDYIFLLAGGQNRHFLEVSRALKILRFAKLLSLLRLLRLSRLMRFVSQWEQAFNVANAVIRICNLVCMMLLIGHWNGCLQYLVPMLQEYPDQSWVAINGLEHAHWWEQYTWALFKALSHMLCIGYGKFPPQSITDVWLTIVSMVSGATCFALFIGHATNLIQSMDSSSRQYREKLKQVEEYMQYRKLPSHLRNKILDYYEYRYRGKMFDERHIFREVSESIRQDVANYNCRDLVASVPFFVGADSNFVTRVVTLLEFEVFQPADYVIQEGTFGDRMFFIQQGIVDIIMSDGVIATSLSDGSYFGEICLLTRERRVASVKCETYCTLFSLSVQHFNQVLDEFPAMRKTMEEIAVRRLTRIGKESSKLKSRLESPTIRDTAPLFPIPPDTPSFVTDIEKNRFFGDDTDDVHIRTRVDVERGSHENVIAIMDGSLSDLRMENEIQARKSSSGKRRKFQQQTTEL
The experiment is classed as cell-based.

As a reminder, the IC50 is the concentration that inhibits the measured activity by half. The low end stands for greater potency in that assay, the high end for weaker potency in that assay. In turn, `CCCCCCCC(=O)OC[C@H](COP(=O)(O)O[C@H]1[C@H](O)[C@@H](O)[C@H](OP(=O)(O)O)[C@@H](O)[C@H]1O)OC(=O)CCCCCCC` [diC8-PIP] displayed an IC50 of 13.6 µM.
